In patent US12070464B2, “Methods of treating myeloproliferative disorders” (priority 2019, dated 2024):

Tests used:
[1] = test system: patients with refractory or intolerant advanced myelofibrosis; experiment: Phase 2 study, Arms 1 and 2 together (monotherapy or add-on to ruxolitinib); assay type: in vivo, human
Method: A Phase 2 study of Compound 1 in subjects with myelofibrosis (MF) was conducted. Three treatment arms were studied:
(§1) Arm 1=monotherapy with Compound 1 in patients (pts) who are no longer on Rux and are with refractory, intolerant, or ineligible. In this arm patients were further stratified based on transfusion dependence status [transfusion dependent (TD), defined as an average of >2 units per month over 12 wks, or non-TD cohorts]. Primary endpoint: spleen volume response (SVR) for non-TD cohorts or TD to transfusion independence (TI, no transfusion for consecutive 12 wks) conversion for TD cohorts; secondary endpoints: change in total symptom score (TSS) per MFSAF v4.0, patient global impression of change (PGIC), safety and PK; additional endpoints: changes in proinflammatory Ck levels, BM morphology and mutant allele burden.
as §1, with “2=combination add-on treatment of” for “1=monotherapy with”, “already being administered Rux.” for “no longer on Rux and are with refractory, intolerant, or ineligible.”, “cohorts]. The starting dose of Compound 1 was 125 mg daily on days 1-14 of a 21-day cycle in both arms.” for “cohorts].”
The starting dose of Compound 1 was 125 mg given orally, once daily for 2 weeks on/1 week off in a 21-day dosing cycle. Two separate time points for data analysis occurred for at least Arms 1 and 2 and are discussed below: one at approximately 12 weeks of treatment (first assessment of spleen volume by MRI or CT and every 12 weeks thereafter) and another at approximately 24 weeks of treatment (first assessment of bone marrow biopsy and every 24 weeks thereafter). Patients were added to the study following the first time point.
Demographics and results are as follows: At baseline, median age: 69 years (41-88), gender: 28 (58%) male, ECOG <1: 45 (94%) patients, primary MF: 33 (69%) patients, DIPSS score high: 10 (21%) patients, median platelet: 199 x 1091 (77-895), 34 (71%) patients with Hgb <10 g/dL, median spleen volume: 2183 cc (123-3909), median TSS: 17.6 (1.4-56), 46 (96%) patients had ≥1 JAK2/MPL/CALR mutations, and 34 (71%) patients had HMR (high molecular risk) mutations. 33 (69%) patients on treatment for ≥12 wks, 4 on treatment for >18 months.

[2] = test system: CD34+ cells isolated from healthy donor bone marrow; experiment: Megakaryocyte differentiation, single agent, 14 days (FACS); assay type: cell-based; details: FIG. 2
Method: The effects of Compound 1 on megakaryocyte differentiation and proliferation were evaluated using CD34+ cells isolated from healthy donor bone marrow (data on file). The CD34+cells were grown in megakaryocyte differentiation serum-free stem cell differentiation base medium with a megakaryocyte-driving cytokine cocktail for 14 days with DMSO or Compound 1 at concentrations ranging from 3 nM to 500 nM. The cells were then stained for CD34 (progenitor marker), CD45 (leukocyte marker) and CD41a (mature megakaryocyte marker) and assessed by FACS for viability and marker expression. CD41a expression and cell size were used as markers of megakaryocyte differentiation. […] The shift from high to low CD41a expression began at approximately 50 nM, with pronounced effects observed at 200 to 500 nM, as shown in FIG. 2.

[3] = Time Point 2, Arms 1 and 2, FIG. 14

Cc1noc2c1-c1ccccc1C(c1ccc(Cl)cc1)=N[C@H]2CC(N)=O [Compound 1, 2-((4S)-6-(4-chlorophenyl)-1-methyl-4H-benzo[c]isoxazolo[4,5-e]azepin-4-yl)acetamide]
most common (≥20%) treatment-emergent adverse events of any Gr ([1]; Time Point 1): diarrhea, nausea, cough and upper respiratory tract infection
≥3 Gr TEAE anemia ([1]; Time Point 1): 8.3%
patients with improvement in BM fibrosis and/or reticulin by ≥1 Gr ([1]; Time Point 1, 7 of 12 evaluable patients, as early as 6-months): 58%
patients with ≥50% TSS improvement ([1]; Time Point 1, 11 patients): 39%
patients reporting much or very much improved PGIC scores ([1]; Time Point 1, 21 patients): 64%
patients with TSS improvement ([1]; Time Point 1, 26 of 28 patients, FIG. 8 panel B): 93%
patients with PGIC improvement score ([1]; Time Point 1, 28 of 33 patients): 85%
patients with spleen volume reduction ([1]; Time Point 1, 29 of 31 patients, FIG. 8 panel A): 94%
≥3 Gr TEAE thrombocytopenia ([1]; Time Point 1, asymptomatic, non-cumulative and generally reversible): 8.3%
subjects with bone marrow fibrosis improvement [1, 3]: about 38%
subjects with bone marrow fibrosis improvement as early as 6-months [1, 3]: about 32%
tolerability ([1]; alone or add-on to ruxolitinib): generally well-tolerated
concentration at which shift from high to low CD41a expression began [2]: approximately 50 nM
